The values that follow come from ChEMBL document CHEMBL3813696, “Identification of Compounds with Efficacy against Malaria Parasites from Common North American Plants” (J Nat Prod, 2016).

Structures are written as SMILES.

As usually defined, the IC50 is the point on the concentration scale where inhibition reaches its midpoint.

For data set [1], the system named is Plasmodium falciparum. Nature of the data set: Antimalarial activity against multidrug sensitive Plasmodium falciparum HB3 assessed as growth inhibition after 72 hrs by SYBR Green based fluorescence assay. It is filed as functional, organism-based.
The test system of data set [2] is Plasmodium falciparum. Briefly: Antimalarial activity against multidrug resistant Plasmodium falciparum NHP1337 assessed as growth inhibition after 72 hrs by SYBR Green based fluorescence assay. It is filed as functional, organism-based.
The nature of data set [3]: Resistance index, ratio of IC50 for multidrug resistant Plasmodium falciparum NHP1337 to IC50 for multidrug sensitive Plasmodium falciparum HB3. It is filed as functional.
Another data set relates to HeLa. Briefly: Cytotoxicity against human HeLa cells assessed as growth inhibition by sulforhodamine B assay. It is filed as cell-based. (In general: The SRB assay estimates cell density from bound dye.)
Data set [4] in a line: Selectivity ratio of IC50 for human HeLa cells to IC50 for multidrug sensitive Plasmodium falciparum HB3. In kind it is ADME, cell-based. Conditions: for selectivity ratio: HeLa cells versus Plasmodium falciparum HB3, read-out: Ratio IC50; for Ratio IC50: hela.
A short description of data set [5]: Selectivity ratio of IC50 for human HeLa cells to IC50 for multidrug resistant Plasmodium falciparum NHP1337. It is filed as ADME, cell-based. As to conditions: for selectivity ratio: HeLa cells versus Plasmodium falciparum NHP1337, read-out: Ratio IC50; for Ratio IC50: hela.
Where [6] appears, read: Plasmodium falciparum, HB3, 72 h.
Where [7] appears, read: Plasmodium falciparum, NHP1337, 72 h.

For `C[C@@H]1O[C@@H](Oc2c(-c3ccc(O)cc3)oc3cc(O)cc(O)c3c2=O)[C@H](OC(=O)/C=C/c2ccc(O)cc2)[C@H](OC(=O)/C=C/c2ccc(O)cc2)[C@H]1O`, the IC50 in the data set on Plasmodium falciparum [1] (setting [6]) stood at 600 nM; with Plasmodium falciparum [2] (setting [7]), 7000 nM; in the data set with HeLa (Homo sapiens, HeLa), 20600 nM. Besides, in data set [3], the Ratio IC50 worked out at 12. The selectivity ratio in data set [4] turned out to be 34; in data set [5], 2.9.

With `C=C(C)[C@@H]1CC[C@]2(CO)CC[C@]3(C)[C@H](CC[C@@H]4[C@@]5(C)CC[C@H](OC(=O)/C=C/c6ccc(O)cc6)[C@@](C)(CO)[C@@H]5CC[C@]43C)[C@@H]12` (stereo in doubt; 6) [listing 1 of 2 here], the results for the IC50 in the data set on Plasmodium falciparum [1] (setting [6]), with Plasmodium falciparum [2] and in the data set with HeLa (hela) were 1900 nM, 1400 nM and greater than 20000 nM, respectively. Further, the “Ratio IC50” value in data set [4] was greater than 11; in data set [5], greater than 14.

On to `C[C@@H]1O[C@@H](Oc2c(-c3ccc(O)cc3)oc3cc(O)cc(O)c3c2=O)[C@H](OC(=O)/C=C/c2ccc(O)cc2)[C@H](OC(=O)/C=C\c2ccc(O)cc2)[C@H]1O`, for which the IC50 is 2000 nM in the data set on Plasmodium falciparum [1] (setting [6]); 4000 nM in the data set with Plasmodium falciparum [2] (setting [7]); 11900 nM in the data set with HeLa (Homo sapiens, HeLa). Besides, in data set [3], the Ratio IC50 was 2. Also, the figures for the selectivity ratio in data set [4] and in data set [5] were 6 and 3, respectively.

Take `COc1cc(O)c(-c2c(C)cc(O)c3c2C(=O)c2cccc(O)c2C3=O)c(O)c1C(C)=O` [KNIPHOLONE]: the IC50 came to 5000 nM in the data set on Plasmodium falciparum [2] (setting [7]) and 32300 nM in the data set with HeLa (Homo sapiens, HeLa). In addition, in data set [3], the Ratio IC50 is 1. Further, the selectivity ratio in data set [4] is 6.6; in data set [5], 6.5.

For the molecule `CC(=O)O[C@@H]1[C@@H](OC(=O)/C=C\c2ccc(O)cc2)[C@H](Oc2c(-c3ccc(O)cc3)oc3cc(O)cc(O)c3c2=O)O[C@H](COC(=O)/C=C\c2ccc(O)cc2)[C@H]1OC(C)=O`, the IC50 was 2100 nM in the data set on Plasmodium falciparum [1] (setting [6]); 3800 nM in the data set with Plasmodium falciparum [2] (setting [7]); less than 3000 nM with HeLa (Homo sapiens, HeLa). For the same molecule, the Ratio IC50 in data set [3] was found to be 1.8. The values for the selectivity ratio in data set [4] and in data set [5] were less than 1.4 and less than 0.8, respectively.

On to `C=C(C)[C@@H]1CC[C@]2(CO)CC[C@]3(C)[C@H](CC[C@@H]4[C@@]5(C)CC[C@H](O)[C@@](C)(COC(=O)/C=C/c6ccc(O)c(OC)c6)[C@@H]5CC[C@]43C)[C@@H]12` (stereo in doubt) [listing 1 of 2 here], for which the concentration for half-maximal inhibition (IC50) in the data set with Plasmodium falciparum [1] (setting [6]) was found to be 1000 nM; with Plasmodium falciparum [2], 310 nM; with HeLa (hela) it was 20000 nM. Also, the “Ratio IC50” value was 20 in data set [4] and 65 in data set [5].

As for `CC(=O)O[C@@H]1[C@@H](OC(=O)/C=C/c2ccc(O)cc2)[C@H](Oc2c(-c3ccc(O)cc3)oc3cc(O)cc(O)c3c2=O)O[C@H](COC(=O)/C=C\c2ccc(O)cc2)[C@H]1OC(C)=O`, the 50% inhibitory concentration (IC50) in the data set on Plasmodium falciparum [1] (setting [6]) is 800 nM; with Plasmodium falciparum [2] (setting [7]) it was 4000 nM; with HeLa (Homo sapiens, HeLa) it was less than 3000 nM. In addition, the Ratio IC50 in data set [3] was 5. In addition, the selectivity ratio in data set [4] was less than 3.8; in data set [5], less than 0.8.

As to `C=C(C)[C@@H]1CC[C@]2(CO)CC[C@]3(C)[C@H](CC[C@@H]4[C@@]5(C)CC[C@H](O)[C@@](C)(COC(=O)/C=C/c6ccc(O)cc6)[C@@H]5CC[C@]43C)[C@@H]12`, the IC50 in the data set with Plasmodium falciparum [1] (setting [6]) worked out at 900 nM; in the data set with Plasmodium falciparum [2] (setting [7]), 850 nM; in the data set on HeLa (Homo sapiens, HeLa), 28000 nM. The Ratio IC50 in data set [3] turned out to be 0.9. The selectivity ratio in data set [4] was determined as 31; in data set [5], 33.

As to `C=C(C)[C@@H]1CC[C@]2(CO)CC[C@]3(C)[C@H](CC[C@@H]4[C@@]5(C)CC[C@H](OC(=O)/C=C/c6ccc(O)cc6)[C@@](C)(CO)[C@@H]5CC[C@]43C)[C@@H]12` (stereo in doubt) [listing 1 of 2 here], the IC50 in the data set with Plasmodium falciparum [1] came to 2300 nM; with Plasmodium falciparum [2] (setting [7]) it was 1600 nM; in the data set on HeLa (Homo sapiens, HeLa), 22000 nM. Also, the values for the selectivity ratio in data set [4] and in data set [5] were 9.6 and 14, respectively.

For the molecule `C=C(C)[C@@H]1CC[C@]2(CO)CC[C@]3(C)[C@H](CC[C@@H]4[C@@]5(C)CC[C@H](O)[C@@](C)(COC(=O)/C=C/c6ccc(O)c(OC)c6)[C@@H]5CC[C@]43C)[C@@H]12` (stereo in doubt) [listing 2 of 2 here], in data set [3], the Ratio IC50 is 0.3.

On to `C[C@@H]1O[C@@H](Oc2c(-c3ccc(O)cc3)oc3cc(O)cc(O)c3c2=O)[C@H](OC(=O)/C=C\c2ccc(O)cc2)[C@H](OC(=O)/C=C/c2ccc(O)cc2)[C@H]1O`, for which the IC50 worked out at 500 nM in the data set on Plasmodium falciparum [1] (setting [6]); 4100 nM in the data set on Plasmodium falciparum [2] (setting [7]); 9300 nM with HeLa (Homo sapiens, HeLa). Further, the Ratio IC50 in data set [3] was 8.2. Further, the figures for the selectivity ratio in data set [4] and in data set [5] were 19 and 2.3, respectively.

For the molecule `C=C(C)[C@@H]1CC[C@]2(CO)CC[C@]3(C)[C@H](CC[C@@H]4[C@@]5(C)CC[C@H](O)[C@@](C)(COC(=O)/C=C\c6ccc(O)cc6)[C@@H]5CC[C@]43C)[C@@H]12`, the IC50 was found to be 800 nM in the data set on Plasmodium falciparum [1] (setting [6]); 1530 nM in the data set on Plasmodium falciparum [2] (setting [7]); 7000 nM in the data set with HeLa (Homo sapiens, HeLa). Moreover, the Ratio IC50 in data set [3] came to 1.9. Further, the values for the selectivity ratio in data set [4] and in data set [5] were 8.8 and 4.6, respectively.

With `C=C(C)[C@@H]1CC[C@]2(CO)CC[C@]3(C)[C@H](CC[C@@H]4[C@@]5(C)CC[C@H](OC(=O)/C=C/c6ccc(O)cc6)[C@@](C)(CO)[C@@H]5CC[C@]43C)[C@@H]12` (stereo in doubt; 6) [listing 2 of 2 here], the Ratio IC50 in data set [3] was found to be 0.7.

On to `C=C(C)[C@@H]1CC[C@]2(CO)CC[C@]3(C)[C@H](CC[C@@H]4[C@@]5(C)CC[C@H](O)[C@@](C)(COC(=O)/C=C/c6ccc(O)c(OC)c6)[C@@H]5CC[C@]43C)[C@@H]12` (stereo in doubt; 3) [listing 1 of 2 here], for which the 50% inhibitory concentration (IC50) in the data set with Plasmodium falciparum [1] was 500 nM; in the data set with Plasmodium falciparum [2] (setting [7]), 270 nM; in the data set with HeLa (Homo sapiens, HeLa), greater than 20000 nM. In addition, the selectivity ratio in data set [4] was greater than 40; in data set [5], greater than 74.

For the molecule `C=C(C)[C@@H]1CC[C@]2(CO)CC[C@]3(C)[C@H](CC[C@@H]4[C@@]5(C)CC[C@H](OC(=O)/C=C/c6ccc(O)c(OC)c6)[C@@](C)(CO)[C@@H]5CC[C@]43C)[C@@H]12`, the IC50 in the data set on Plasmodium falciparum [1] (setting [6]) was 3000 nM; in the data set with Plasmodium falciparum [2] (setting [7]), 2300 nM; in the data set on HeLa (Homo sapiens, HeLa), greater than 20000 nM. Besides, in data set [3], the Ratio IC50 is 0.8. Further, the selectivity ratio in data set [4] is greater than 6.7; in data set [5] it was greater than 8.7.

As for `C=C(C)[C@@H]1CC[C@]2(CO)CC[C@]3(C)[C@H](CC[C@@H]4[C@@]5(C)CC[C@H](O)[C@@](C)(CO)[C@@H]5CC[C@]43C)[C@@H]12`, the IC50 in the data set on Plasmodium falciparum [1] (setting [6]) is 3400 nM; in the data set with Plasmodium falciparum [2] (setting [7]), 5200 nM; with HeLa (Homo sapiens, HeLa), greater than 20000 nM. The Ratio IC50 in data set [3] is 1.5. Besides, the selectivity ratio is greater than 5.9 in data set [4] and greater than 3.8 in data set [5].

In the case of `CC(=O)O[C@@H]1[C@@H](OC(=O)/C=C\c2ccc(O)cc2)[C@H](Oc2c(-c3ccc(O)cc3)oc3cc(O)cc(O)c3c2=O)O[C@H](COC(=O)/C=C/c2ccc(O)cc2)[C@H]1OC(C)=O`, the IC50 in the data set on Plasmodium falciparum [1] (setting [6]) was 900 nM; with Plasmodium falciparum [2] (setting [7]), 5000 nM; with HeLa (Homo sapiens, HeLa) it was less than 3000 nM. In addition, the Ratio IC50 in data set [3] worked out at 5.6. Also, the selectivity ratio was less than 3.3 in data set [4] and less than 0.6 in data set [5].

For the molecule `C[C@@H]1O[C@@H](Oc2c(-c3ccc(O)cc3)oc3cc(O)cc(O)c3c2=O)[C@H](OC(=O)/C=C\c2ccc(O)cc2)[C@H](OC(=O)/C=C\c2ccc(O)cc2)[C@H]1O`, the IC50 with Plasmodium falciparum [1] (setting [6]) was determined as 1800 nM; in the data set with Plasmodium falciparum [2] (setting [7]), 7000 nM; with HeLa (Homo sapiens, HeLa), 16000 nM. Moreover, in data set [3], the Ratio IC50 is 3.9. Besides, the selectivity ratio in data set [4] was determined as 8.9; in data set [5], 2.3.

Regarding `CC(=O)O[C@@H]1[C@@H](OC(=O)/C=C/c2ccc(O)cc2)[C@H](Oc2c(-c3ccc(O)cc3)oc3cc(O)cc(O)c3c2=O)O[C@H](COC(=O)/C=C/c2ccc(O)cc2)[C@H]1OC(C)=O`, the IC50 in the data set on Plasmodium falciparum [1] (setting [6]) was 600 nM; in the data set with Plasmodium falciparum [2] (setting [7]), 2100 nM; in the data set with HeLa (Homo sapiens, HeLa), less than 3000 nM. In data set [3], the Ratio IC50 came to 3.5. For the same molecule, the selectivity ratio was less than 5 in data set [4] and less than 1.4 in data set [5].

On to `C=C(C)[C@@H]1CC[C@]2(CO)CC[C@]3(C)[C@H](CC[C@@H]4[C@@]5(C)CC[C@H](O)[C@@](C)(COC(=O)/C=C/c6ccc(O)c(OC)c6)[C@@H]5CC[C@]43C)[C@@H]12` (stereo in doubt; 3) [listing 2 of 2 here], for which the Ratio IC50 in data set [3] was found to be 0.5.

On to `C=C(C)[C@@H]1CC[C@]2(CO)CC[C@]3(C)[C@H](CC[C@@H]4[C@@]5(C)CC[C@H](OC(=O)/C=C/c6ccc(O)cc6)[C@@](C)(CO)[C@@H]5CC[C@]43C)[C@@H]12` (stereo in doubt) [listing 2 of 2 here], for which the Ratio IC50 in data set [3] worked out at 0.7.

Consider `O=c1cc(-c2ccc(O)c(-c3c(O)cc(O)c4c(=O)cc(-c5ccc(O)cc5)oc34)c2)oc2cc(O)cc(O)c12` [AMENTOFLAVONE], for which the IC50 in the data set with Plasmodium falciparum [1] (setting [6]) stood at 25000 nM; in the data set on Plasmodium falciparum [2] (setting [7]), 19000 nM; in the data set on HeLa (Homo sapiens, HeLa) it was 46400 nM. Moreover, the Ratio IC50 in data set [3] turned out to be 0.8. Further, the selectivity ratio in data set [4] was determined as 1.9; in data set [5], 2.4.
